Reference: US10485235B2, “Aryloxypyrimidinyl ethers as herbicides” (FMC Corporation, priority 2015, dated 2019)

What was measured:
Type in all cases: in vivo
[1] = test system: barnyardgrass (Echinochloa crus-galli); assay: Test A postemergence, barnyardgrass
In short: (§1)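 Planted seeds in loam soil mixed with sand; sprayed soil directly (pre). Grew seedlings to one- to two-leaf stage, 2–10 cm; sprayed foliage (post). Held in greenhouse ~10 days. Rated injury visually vs untreated controls, 0–100.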

[2] = test system: wheat (Triticum aestivum); assay: Test A postemergence, wheat
In short: as §1

kochia (Kochia scoparia) [3] = assay: Test A preemergence, kochia; conditions: Preemergence, 0 to 100 scale (0 no effect, 100 complete control)
In short: as §1

[4] = test system: ragweed (common ragweed, Ambrosia elatior); assay: Test A postemergence, ragweed
In short: as §1

[5] = test system: galium (catchweed bedstraw, Galium aparine); assay: Test A postemergence, galium
In short: as §1

rice (Oryza sativa) = assay: Test B flooded paddy test, rice; conditions: 250 g ai/ha, Flood; visual rating after 13 to 15 days; scale 0 to 100, 0 is no effect, 100 is complete control
In short: (§2)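 Seedlings at the 2-leaf stage are flooded to 3 cm and treated via the paddy water. Greenhouse plants are compared with controls after 13 to 15 days and given a 0 (no effect) to 100 (complete control) rating.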

[6] = test system: blackgrass (Alopecurus myosuroides); assay: Test A postemergence, blackgrass
In short: as §1

[7] = test system: foxtail, giant (giant foxtail, Setaria faberii); assay: Test A preemergence, giant foxtail; conditions: Preemergence, 0 to 100 scale (0 no effect, 100 complete control)
In short: as §1

[8] = test system: sedge, umbrella (small-flower umbrella sedge, Cyperus difformis); assay: Test B flooded paddy test, umbrella sedge; conditions: 250 g ai/ha, Flood; visual rating after 13 to 15 days; scale 0 to 100, 0 is no effect, 100 is complete control
In short: as §2

[9] = test system: pigweed (Amaranthus retroflexus); assay: Test A preemergence, pigweed; conditions: Preemergence, 0 to 100 scale (0 no effect, 100 complete control)
In short: as §1

[10] = test system: barnyardgrass (Echinochloa crus-galli); assay: Test A preemergence, barnyardgrass; conditions: Preemergence, 0 to 100 scale (0 no effect, 100 complete control)
In short: as §1

[11] = test system: ryegrass, Italian (Italian ryegrass, Lolium multiflorum); assay: Test A preemergence, Italian ryegrass; conditions: Preemergence, 0 to 100 scale (0 no effect, 100 complete control)
In short: as §1

[12] = test system: barnyardgrass (Echinochloa crus-galli); assay: Test B flooded paddy test, barnyardgrass; conditions: 250 g ai/ha, Flood; visual rating after 13 to 15 days; scale 0 to 100, 0 is no effect, 100 is complete control
In short: as §2

[13] = test system: ducksalad (Heteranthera limosa); assay: Test B flooded paddy test, ducksalad; conditions: 250 g ai/ha, Flood; visual rating after 13 to 15 days; scale 0 to 100, 0 is no effect, 100 is complete control
In short: as §2

[14] = test system: ryegrass, Italian (Italian ryegrass, Lolium multiflorum); assay: Test A postemergence, Italian ryegrass
In short: as §1

corn (Zea mays) = assay: Test A postemergence, corn
In short: as §1

[15] = test system: ragweed (common ragweed, Ambrosia elatior); assay: Test A preemergence, ragweed; conditions: Preemergence, 0 to 100 scale (0 no effect, 100 complete control)
In short: as §1

[16] = test system: pigweed (Amaranthus retroflexus); assay: Test A postemergence, pigweed
In short: as §1

[17] = test system: foxtail, giant (giant foxtail, Setaria faberii); assay: Test A postemergence, giant foxtail
In short: as §1

kochia (Kochia scoparia) [18] = assay: Test A postemergence, kochia
In short: as §1

[19] = 125 g ai/ha, postemergence, 0 to 100 scale, 0 is no effect, 100 is complete control, approximately 10 days
[20] = Postemergence, 31 g ai/ha, 0 to 100 scale (0 no effect, 100 complete control)

SMILES | Plant response rating, Barnyardgrass [1, 19] | Plant response rating, Barnyardgrass [1, 20] | Plant response rating, Wheat [2, 19] | Plant response rating, Wheat [2, 20] | Plant response rating, Kochia (kochia (Kochia scoparia) [3]; 31 g ai/ha) | Plant response rating, Kochia (kochia (Kochia scoparia) [3]; 125 g ai/ha) | Plant response rating, Ragweed [4, 19] | Plant response rating, Ragweed [4, 20] | Plant response rating, Galium [5, 19] | Plant response rating, Galium [5, 20] | Plant response rating, Rice (rice (Oryza sativa)) | Plant response rating, Blackgrass [6, 19] | Plant response rating, Blackgrass [6, 20] | Plant response rating, Foxtail, Giant ([7]; 31 g ai/ha) | Plant response rating, Foxtail, Giant ([7]; 125 g ai/ha) | Plant response rating, Sedge, Umbrella [8] | Plant response rating, Pigweed ([9]; 31 g ai/ha) | Plant response rating, Pigweed ([9]; 125 g ai/ha) | Plant response rating, Barnyardgrass ([10]; 31 g ai/ha) | Plant response rating, Barnyardgrass ([10]; 125 g ai/ha) | further results
N#Cc1cccc(Oc2ncc(Cl)cn2)c1OCC(=O)C(F)(F)C(F)(F)F [Compound 74] | 20 | 0 | 0 | 0 | 0 | 0 | 20 | 20 | 30 | 0 | 0 | 0 | 0 | 0 | 70 | 0 | 60 | 80 | 0 | 30 | Plant response rating, Ryegrass, Italian ([11]; 31 g ai/ha): 0; Plant response rating, Ryegrass, Italian ([11]; 125 g ai/ha): 0; Plant response rating, Barnyardgrass [12]: 0; Plant response rating, Ducksalad [13]: 0; Plant response rating, Ryegrass, Italian [14, 19]: 0; Plant response rating, Ryegrass, Italian [14, 20]: 0; Plant response rating, Corn (corn (Zea mays); [19]): 20; Plant response rating, Corn (corn (Zea mays); [20]): 0; Plant response rating, Ragweed ([15]; 31 g ai/ha): 0; Plant response rating, Ragweed ([15]; 125 g ai/ha): 0; Plant response rating, Pigweed [16, 19]: 70; Plant response rating, Pigweed [16, 20]: 20; Plant response rating, Foxtail, Giant [17, 19]: 40; Plant response rating, Foxtail, Giant [17, 20]: 0; Plant response rating, Kochia (kochia (Kochia scoparia) [18]; [19]): 20; Plant response rating, Kochia (kochia (Kochia scoparia) [18]; [20]): 0
CCC(=O)COc1c(C#N)cccc1Oc1ncc(Cl)cn1 [Compound 75] | 0 | 0 | 0 | 0 | 0 | 60 | 0 | 0 | 20 | 10 | 0 | 0 | 0 | 0 | 40 | 0 | 50 | 100 | 0 | 50 | Plant response rating, Ryegrass, Italian ([11]; 31 g ai/ha): 0; Plant response rating, Ryegrass, Italian ([11]; 125 g ai/ha): 0; Plant response rating, Barnyardgrass [12]: 0; Plant response rating, Ducksalad [13]: 30; Plant response rating, Ryegrass, Italian [14, 19]: 0; Plant response rating, Ryegrass, Italian [14, 20]: 0; Plant response rating, Corn (corn (Zea mays); [19]): 10; Plant response rating, Corn (corn (Zea mays); [20]): 0; Plant response rating, Ragweed ([15]; 31 g ai/ha): 0; Plant response rating, Ragweed ([15]; 125 g ai/ha): 0; Plant response rating, Pigweed [16, 19]: 20; Plant response rating, Pigweed [16, 20]: 10; Plant response rating, Foxtail, Giant [17, 19]: 0; Plant response rating, Foxtail, Giant [17, 20]: 0; Plant response rating, Kochia (kochia (Kochia scoparia) [18]; [19]): 20; Plant response rating, Kochia (kochia (Kochia scoparia) [18]; [20]): 10
CCC(=O)COc1c(Br)cccc1Oc1ncc(Cl)cn1 [Compound 76] | 20 | 0 | 0 | 0 | 0 | 0 | 0 | 0 | 20 | 10 | 10 | 10 | 0 | 10 | 70 | 70 | 0 | 80 | 20 | 40 | Plant response rating, Ryegrass, Italian ([11]; 31 g ai/ha): 0; Plant response rating, Ryegrass, Italian ([11]; 125 g ai/ha): 10; Plant response rating, Barnyardgrass [12]: 10; Plant response rating, Ducksalad [13]: 90; Plant response rating, Ryegrass, Italian [14, 19]: 0; Plant response rating, Ryegrass, Italian [14, 20]: 0; Plant response rating, Corn (corn (Zea mays); [19]): 10; Plant response rating, Corn (corn (Zea mays); [20]): 0; Plant response rating, Ragweed ([15]; 31 g ai/ha): 0; Plant response rating, Ragweed ([15]; 125 g ai/ha): 0; Plant response rating, Pigweed [16, 19]: 30; Plant response rating, Pigweed [16, 20]: 10; Plant response rating, Foxtail, Giant [17, 19]: 40; Plant response rating, Foxtail, Giant [17, 20]: 10; Plant response rating, Kochia (kochia (Kochia scoparia) [18]; [19]): 10; Plant response rating, Kochia (kochia (Kochia scoparia) [18]; [20]): 0
